Reference: patent US12098139B2, “Chemokine receptor modulators and uses thereof” (RAPT Therapeutics, Inc., priority 2018, dated 2024)
Where two headings read alike, the source gives them in different places.

Target: T1, hCCR4 (Chem5-hCCR4 cells) (Homo sapiens, UniProt P51679)
T1 sequence (P51679 1-360): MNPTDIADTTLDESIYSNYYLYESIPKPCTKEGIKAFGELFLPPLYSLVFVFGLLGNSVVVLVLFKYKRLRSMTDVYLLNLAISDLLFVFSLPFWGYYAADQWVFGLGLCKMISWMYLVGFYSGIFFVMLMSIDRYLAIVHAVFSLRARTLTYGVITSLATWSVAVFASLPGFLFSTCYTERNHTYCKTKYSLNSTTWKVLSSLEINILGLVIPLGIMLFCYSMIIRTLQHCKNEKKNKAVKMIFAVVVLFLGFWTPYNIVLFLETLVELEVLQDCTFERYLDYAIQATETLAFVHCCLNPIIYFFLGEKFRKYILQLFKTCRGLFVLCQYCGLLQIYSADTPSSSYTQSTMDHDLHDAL
Assay: Calcium flux assay (CCL22-stimulated, FLIPR Calcium 6 dye)
Type: cell-based
Conditions: read-out: Potency (IC50)
Method in brief: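 Chem5-hCCR4 cells were serum-starved 2 h and loaded 2 h with Calcium 6 dye plus 2.5 mM probenecid. They were then preincubated 1 h at 37 °C with compound (0.5% DMSO). CCL22 was added from a 7.5 nM working solution (5× EC80), and ΔF/Fmin at 485/525 nm was fitted 4-parameter for IC50.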

| Compound | IC50 (Table 3, CCL22 1.5 nM) | IC50 (Table 5, CCL22 1.5 nM) | also measured |
| --- | --- | --- | --- |
| C[C@@H](Nc1nc(N2CC([C@H]3CCCN([C@H]4C[C@@](C)(C(=O)O)C4)C3)C2)ncc1Cl)c1ccc(Cl)cc1Cl [Example 40, (1S,3s)-3-((R)-3-(1-(5-chloro-4-(((R)-1-(2,4-dichlorophenyl)ethyl)amino)pyrimidin-2-yl)azetidin-3-yl)piperidin-1-yl)-1-methylcyclobutane-1-carboxylic acid] | < 100 nM |  |  |
| C[C@@H](Nc1nc(N2CC([C@H]3CCCN([C@H]4C[C@](C)(C(=O)O)C4)C3)C2)ncc1C1CC1)c1ccc(Cl)cc1Cl [Example 41, (1R,3r)-3-((R)-3-(1-(5-cyclopropyl-4-(((R)-1-(2,4-dichlorophenyl)ethyl)amino)pyrimidin-2-yl)azetidin-3-yl)piperidin-1-yl)-1-methylcyclobutane-1-carboxylic acid] | < 100 nM |  |  |
| C[C@@H](Nc1nc(N2CC([C@H]3CCCN(CCO)C3)C2)ncc1C#N)c1ccc(S(C)(=O)=O)cc1Cl [Example 42, 4-(((R)-1-(2-chloro-4-(methylsulfonyl)phenyl)ethyl)amino)-2-(3-((R)-1-(2-hydroxyethyl)piperidin-3-yl)azetidin-1-yl)pyrimidine-5-carbonitrile] | > 500 nM |  |  |
| C[C@@H](Nc1nc(N2CC([C@H]3CCCN(CCO)C3)C2)ncc1Br)c1ccc(F)cc1Cl [Example 43, 2-((R)-3-(1-(5-bromo-4-(((R)-1-(2-chloro-4-fluorophenyl)ethyl)amino)pyrimidin-2-yl)azetidin-3-yl)piperidin-1-yl)ethan-1-ol] | < 100 nM |  |  |
| C[C@@H](Nc1nc(N2CC([C@H]3CCCN(CCO)C3)C2)ncc1Cl)c1ccc(F)cc1Cl [Example 44, 2-((R)-3-(1-(5-chloro-4-(((R)-1-(2-chloro-4-fluorophenyl)ethyl)amino)pyrimidin-2-yl)azetidin-3-yl)piperidin-1-yl)ethan-1-ol] | 100 to 500 nM |  |  |
| C[C@@H](Nc1nc(N2CC([C@H]3CCCN([C@H]4C[C@](C)(C(=O)O)C4)C3)C2)ncc1Br)c1ccc(F)cc1Cl [Example 45, (1R,3r)-3-((R)-3-(1-(5-bromo-4-(((R)-1-(2-chloro-4-fluorophenyl)ethyl)amino)pyrimidin-2-yl)azetidin-3-yl)piperidin-1-yl)-1-methylcyclobutane-1-carboxylic acid] | < 100 nM |  |  |
| C[C@@H](Nc1nc(N2CC([C@H]3CCCN([C@H]4C[C@@H](C(=O)O)C4)C3)C2)ncc1F)c1ccc(Cl)cc1Cl [Example 46, (1S,3s)-3-((R)-3-(1-(4-(((R)-1-(2,4-dichlorophenyl)ethyl)amino)-5-fluoropyrimidin-2-yl)azetidin-3-yl)piperidin-1-yl)cyclobutane-1-carboxylic acid] | > 500 nM |  |  |
| C[C@@H](Nc1nc(N2CC([C@H]3CCCN([C@H]4C[C@](C)(C(=O)O)C4)C3)C2)ncc1F)c1ccc(Cl)cc1Cl [Example 47, (1R,3r)-3-((R)-3-(1-(4-(((R)-1-(2,4-dichlorophenyl)ethyl)amino)-5-fluoropyrimidin-2-yl)azetidin-3-yl)piperidin-1-yl)-1-methylcyclobutane-1-carboxylic acid] | 100 to 500 nM |  |  |
| C[C@@H](Nc1nc(N2CC([C@H]3CCCN(CCO)C3)C2)ncc1F)c1ccc(Cl)cc1Cl [Example 48, 2-((R)-3-(1-(4-(((R)-1-(2,4-dichlorophenyl)ethyl)amino)-5-fluoropyrimidin-2-yl)azetidin-3-yl)piperidin-1-yl)ethan-1-ol] | 100 to 500 nM |  |  |
| C[C@@H](Nc1nc(N2CC([C@H]3CCCN(CCO)C3)C2)cnc1C#N)c1ccc(Cl)cc1S(C)(=O)=O [Example 49, 3-[[(1R)-1-(4-chloro-2-methylsulfonyl-phenyl)ethyl]amino]-5-[3-[(3R)-1-(2-hydroxyethyl)-3-piperidyl]azetidin-1-yl]pyrazine-2-carbonitrile; 2,2,2-trifluoroacetic acid] |  |  | IC50 (Table 4, CCL22 1.5 nM): > 500 nM |
| C[C@@H](Nc1nc(N2CC([C@H]3CCCN(C4CC(C)(C(=O)O)C4)C3)C2)cnc1C#N)c1ccc(Cl)cc1Cl (stereo partly drawn) [Example 51, 3-[(1S,3R)-3-[1-[5-cyano-6-[[(1R)-1-(2,4-dichlorophenyl)ethyl]amino]pyrazin-2-yl]azetidin-3-yl]-1-piperidyl]-1-methyl-cyclobutanecarboxylic acid; 2,2,2-trifluoroacetic acid] |  |  | IC50 (Table 4, CCL22 1.5 nM): > 500 nM |
| C[C@@H](Nc1cnc(C#N)c(N2CC([C@H]3CCCN(CCC(=O)O)C3)C2)n1)c1ccc(Cl)cc1Cl [Example 53, 3-(3-(1-(3-cyano-6-(((R)-1-(2,4-dichlorophenyl)ethyl)amino)pyrazin-2-yl)azetidin-3-yl)piperidin-1-yl)propanoic acid] |  |  | IC50 (Table 4, CCL22 1.5 nM): > 500 nM |
| C[C@@H](Nc1nc(N2CC([C@H]3CCCN(CC(=O)N4CCCC4)C3)C2)ncc1Cl)c1ccc(Cl)cc1Cl [Example 56, 2-[(3R)-3-[1-[5-chloro-4-[[(1R)-1-(2,4-dichlorophenyl)ethyl]amino]pyrimidin-2-yl]azetidin-3-yl]-1-piperidyl]-1-pyrrolidin-1-yl-ethanone; 2,2,2-trifluoroacetic acid] |  | 100 to 500 nM |  |
| CC(O)c1cnc(N2CC([C@H]3CCCN([C@H]4C[C@](C)(C(=O)O)C4)C3)C2)nc1N[C@H](C)c1ccc(Cl)cc1Cl (stereo partly drawn) [Example 58, 3-[(3R)-3-[1-[4-[[(1R)-1-(2,4-dichlorophenyl)ethyl]amino]-5-(1-hydroxyethyl)pyrimidin-2-yl]azetidin-3-yl]-1-piperidyl]-1-methyl-cyclobutanecarboxylic acid; 2,2,2-trifluoroacetic acid] |  | < 100 nM |  |
| C[C@@H](Nc1cc(C(F)(F)F)nc(N2CC([C@H]3CCCN([C@H]4C[C@](C)(C(=O)O)C4)C3)C2)n1)c1ccc(Cl)cc1Cl [Example 59, 3-[(1R)-3-[1-[4-[[(1R)-1-(2,4-dichlorophenyl)ethyl]amino]-6-(trifluoromethyl)pyrimidin-2-yl]azetidin-3-yl]-1-piperidyl]-1-methyl-cyclobutanecarboxylic acid] |  | 100 to 500 nM |  |
| C[C@@H](Nc1nc(N2CC([C@H]3CCCN(CCO)C3)C2)nc2sccc12)c1ccc(Cl)cc1Cl [Example 61, 2-[(3R)-3-[1-[4-[[(1R)-1-(2,4-dichlorophenyl)ethyl]amino]thieno[2,3-d]pyrimidin-2-yl]azetidin-3-yl]-1-piperidyl]ethanol; 2,2,2-trifluoroacetic acid] |  | < 100 nM |  |
| C[C@@H](Nc1nc(N2CC([C@H]3CCCN(CCO)C3)C2)nc2ccsc12)c1ccc(Cl)cc1Cl [Example 62, 2-[(3R)-3-[1-[4-[[(1R)-1-(2,4-dichlorophenyl)ethyl]amino]thieno[3,2-d]pyrimidin-2-yl]azetidin-3-yl]-1-piperidyl]ethanol; 2,2,2-trifluoroacetic acid] |  | < 100 nM |  |
| CC(Nc1nc(N2CC([C@H]3CCCN(CCO)C3)C2)ncc1Cl)c1ccc(Cl)cc1F (stereo partly drawn) [Example 63, 2-[(3R)-3-[1-[5-chloro-4-[1-(4-chloro-2-fluoro-phenyl)ethylamino]pyrimidin-2-yl]azetidin-3-yl]-1-piperidyl]ethanol; 2,2,2-trifluoroacetic acid] |  | < 100 nM |  |
| C[C@@H](Nc1nc(N2CC([C@H]3CCCN([C@H]4C[C@](C)(C(=O)O)C4)C3)C2)nc2ccc(F)cc12)c1ccc(Cl)cc1Cl [Example 65, 3-[(1R,3R)-3-[1-[4-[[(1R)-1-(2,4-dichlorophenyl)ethyl]amino]-6-fluoro-quinazolin-2-yl]azetidin-3-yl]-1-piperidyl]-1-methyl-cyclobutanecarboxylic acid; 2,2,2-trifluoroacetic acid] |  | < 100 nM |  |
| C[C@@H](Nc1nc(N2CC([C@H]3CCCN([C@H]4C[C@@H](C(=O)O)C4)C3)C2)nc2ccc(F)cc12)c1ccc(Cl)cc1Cl [Example 66, 3-[(1S,3R)-3-[1-[4-[[(1R)-1-(2,4-dichlorophenyl)ethyl]amino]-6-fluoro-quinazolin-2-yl]azetidin-3-yl]-1-piperidyl]cyclobutanecarboxylic acid; 2,2,2-trifluoroacetic acid] |  | < 100 nM |  |
| C[C@@H](Nc1nc(N2CC([C@H]3CCCN([C@H]4C[C@](C)(C(=O)O)C4)C3)C2)ncc1C(O)C1CC1)c1ccc(Cl)cc1Cl (stereo partly drawn) [Example 70, 3-[(3R)-3-[1-[5-[cyclopropyl(hydroxy)methyl]-4-[[(1R)-1-(2,4-dichlorophenyl)ethyl]amino]pyrimidin-2-yl]azetidin-3-yl]-1-piperidyl]-1-methyl-cyclobutanecarboxylic acid; 2,2,2-trifluoroacetic acid] |  | < 100 nM |  |
| CCC(O)c1cnc(N2CC([C@H]3CCCN([C@H]4C[C@](C)(C(=O)O)C4)C3)C2)nc1N[C@H](C)c1ccc(Cl)cc1Cl (stereo partly drawn) [Example 73, 3-[(3R)-3-[1-[4-[[(1R)-1-(2,4-dichlorophenyl)ethyl]amino]-5-(1-hydroxypropyl)pyrimidin-2-yl]azetidin-3-yl]-1-piperidyl]-1-methyl-cyclobutanecarboxylic acid; 2,2,2-trifluoroacetic acid] |  | < 100 nM |  |
| CC(C)C(O)c1cnc(N2CC([C@H]3CCCN([C@H]4C[C@](C)(C(=O)O)C4)C3)C2)nc1N[C@H](C)c1ccc(Cl)cc1Cl (stereo partly drawn) [Example 76, 3-[(3R)-3-[1-[4-[[(1R)-1-(2,4-dichlorophenyl)ethyl]amino]-5-(1-hydroxy-2-methyl-propyl)pyrimidin-2-yl]azetidin-3-yl]-1-piperidyl]-1-methyl-cyclobutanecarboxylic acid; 2,2,2-trifluoroacetic acid] |  | < 100 nM |  |
